# Measurements reported in US8658677B2, “Pyridyl-2-methylamino compounds, compositions and uses thereof” (Aria Neurosciences Inc., priority 2011, dated 2014).
# Where two headings read alike, the source gives them in different places.
# Legend:
# [1] = system: SK-N-SH human neuroblastoma cells; experiment: Toxicity by MTT cell viability and LDH release assays; assay type: cell-based
# Method: The effect of 0.01-100 μmol/L concentrations of investigational compounds was tested on the viability of the N2a murine neuroblastoma cell line (American Type Culture Collection, Manassas, Va.). N2a cells were grown in Eagle's minimal essential medium with the addition of 10% fetal bovine serum, streptomycin and gentomycin (Sigma, St. Louis, Mo.), harvested with 2% trypsin and plated at 10,000 cells/100 μL per well in flatbottom, 96-well microtiter plates. The cells were allowed to attach to the plate overnight in an incubator (37° C., 5% CO2) and in the following morning stocks of investigational compounds (50 mmol/L stock diluted in DMSO) were added to cells to achieve the final concentration 0.01-100 μmol/L. Adequate amounts of DMSO (Dimethyl sulfoxide, Sigma, St. Louis, Mo.) were added to control cells. Cells were grown in the presence of investigational compounds for 48 h and then their viability was assessed using a metabolic assay, which is based on cleavage of the yellow tetrazolium salt (MTT) to purple formazan crystals by viable cells. The MTT assay (Roche Molecular Biochemicals, Indianapolis, Ind.) was performed according to the manufacturer's instructions. The results from cell culture neurotoxicity studies were evaluated by one-way analysis of variance, followed by a Dunnett's test as a post hoc analysis.
# As shown in FIG. 2 (MTT assay), the compounds were tested for toxicity in SK-N-SH human neuroblastoma cells using MTT cell viability and LDH release (membrane integrity) assays.
# Log P = assay type: physicochemical
# [2] = Pharmacokinetic characterization including BBB permeability; assay type: in vivo, CD-1 WT mice; details: for Brain Cmax / Cmax: mean ±SD; for F (fraction dose absorbed): accounted for po and iv dose difference; for half-life: read-out: Plasma t1/2 (converted)
# Method: Pharmacokinetic characterization including BBB permeability of ARN2966 was performed in three months old, male CD-1 WT mice, which received a single oral (po; 25 mg/kg) or intravenous (iv; 5 mg/kg) dose of ARN2966 and were sacrificed 0.25, 0.5, 1, 2, 8, and 24 hr later (n=3 per time point). Plasma and brain concentration of ARN2966 were determined using liquid chromatography-mass spectrometry (LC/MS) (Table I). […] 64.2% of its orally administered dose was absorbed from the alimentary tract. […] This is because of the instability of —CH═N— bond. Therefore, we focused on PK/BBB permeability characterization of ARN2966, where —CH═N— bond was reduced to —CH2—NH—.
# Aβ40 = Aβ40 secretion by primary hippocampal neurons derived from Tg2576 AD Tg mice; assay type: cell-based; details: 10 μM, primary neuronal cultures from Tg2576 mice
# Method: In addition to studying the effect of ARN4261 and ARN2966 on Aβ oligomerization and fibrillization, we have explored their properties in respect to the modulation of Aβ production using CHO clones stably transfected with WT human APP751 and double Swedish APP751 mutant (KM670/671NL). The results in FIGS. 3(A) and 3(B) show inhibitory effect of ARN4261 and ARN2966 on secretion of Aβ40 and Aβ42 by 751APPSW CHO cells exposed to ARN compounds for 48 hr. Values are expressed as % of Aβ40 and Aβ42 levels in conditioned media (CM) of untreated cells. FIG. 3(C) Concentrations of Aβ40 and Aβ42 in 751APPSWCHO cell CM under increasing concentrations of ARN2966. 751APPSWCHO cells secrete Aβ40 and Aβ42 in proportions 9:1, akin to the proportions of Aβ peptides produced by neurons. […] Aβ40 and Aβ42 levels were determined using sandwich ELISA where C-terminal specific anti Aβ40 and Aβ42 mAbs were used as capture Abs and biotinylated 4G8 as the detection Ab. […] We also confirmed that ARN2966 inhibited secretion of Aβ by primary neuronal cultures derived from Tg2576 AD Tg mice.
# M17 neuroblastoma cells = experiment: Rescue of M17 neuroblastoma cells from death induced by MPP+ and H2O2 (MTT); assay type: cell-based
# Description: Cell viability was detected by MTT assay.
# Aβ plaques = experiment: Aβ plaque load and brain Aβ level after chronic treatment; assay type: in vivo, mice
# Method: Female APPSW/PS1dE9 AD double transgenic (Tg) mice received daily intraperitoneal injections of ARN2966 (50 mg/kg) starting from the age of six months until the age of 10 months.
# Following the course of ARN2966 treatment, animals were sacrificed, and the load of Thioflavin-S (Th-S) stained Aβ plaques (% of histological section area covered by plaques) was quantified in the brain cortex on serial coronal sections through the rostrocaudal axis of the right hemisphere as described by us [Sadowski 2004]. The left hemisphere was homogenized (1:10 weight/volume), and aliquots of the homogenate were used to measure the level of Aβ oligomers (Aggregated β-Amyloid ELISA Kit, [Invitrogen]) or subjected to formic acid (FA) extraction to determine total Aβ40 and Aβ42 brain levels via sandwich ELISAs discriminating C-terminal configuration of both peptides as described by us [Sadowski 2006]. […] Levels of FA extracted Aβ40 and Aβ42 were reduced by 82% (p<0.001) and 56% (p<0.001; FIG. 6C).
# FIGS. 6.(A, B) ARN2966 treatment reduces load of Aβ plaques (n=10 ARN2966, n=15 Vehicle). (B) Representative photomicrograph of Th-S stained brain sections from vehicle and ARN2966 treated 10 month old, female APPSW/PS1dE9reveal a difference in the load of Aβ plaques. […] (D) Reduced Aβ40 and Aβ42 levels in FA extracted brain homogenate, which represent the total brain content of Aβ peptides in ARN2966 treated animals (ELISA). (E) Reduced soluble Aβ40 level in DEA extracted brain homogenate, of ARN2966 and Compound E treated mice (ELISA). […] Aβ concentrations in (C) (D) and (E) are given per gram of wet brain. All values are given as mean±SEM. Statistical analysis was done using two-tailed unpaired t-test, following confirmation of normal distribution of data using Shapiro-Wilk test.
# [3] = male, CD-1, mouse, plasma, IV - 5 mg/kg, mice
# [4] = male, CD-1, mouse, plasma, PO - 25 mg/kg, mice
# [5] = 50 mg/kg/day ip, age six to ten months, ELISA
smiles,measurement,setting,value
"Oc1ccccc1NCc1ccccn1 [ARN2966, 2-[(pyridine-2-ylmethyl)-amino]-phenol]",toxicity,[1]; test not specified,not toxic
same,logP,Log P,1.96
same,Brain Cmax,"[2]; IV - 5 mg/kg, mice, 5 mg/kg",21.4 µg/kg
same,Brain Cmax,"[2]; IV - 5 mg/kg, mice, listed as ARN 2966, 5 mg/kg",21.4 ± 2.7 µg/kg
same,F (fraction dose absorbed),"[2]; PO - 25 mg/kg, 25 mg/kg",64.2%
same,F (fraction dose absorbed),"[2]; PO - 25 mg/kg, listed as ARN 2966, 25 mg/kg",64.20%
same,Brain Cmax,"[2]; PO - 25 mg/kg, mice",12.5 ± 2.3 µg/kg
same,maximal brain concentration,"[2]; after iv dosing, 5 mg/kg",0.11 µM
same,Tmax,"[2]; male, CD-1, mouse, brain, IV - 5 mg/kg, mice, read-out: Brain Tmax",15 min
same,Tmax,"[2]; male, CD-1, mouse, brain, PO - 25 mg/kg, mice, read-out: Brain Tmax",30 min
same,AUC(0-inf),[2]; [3],1230 ng·h/mL
same,clearance,[2]; [3],67.8 mL/min/kg
same,Cmax,[2]; [3],1030 ± 440 ng/mL
same,Tmax,"[2]; male, CD-1, mouse, plasma, IV - 5 mg/kg, mice, read-out: Plasma Tmax",15 min
same,half-life,[2]; [3],368 min
same,Vd,"[2]; male, CD-1, mouse, plasma, IV - 5 mg/kg, mice, read-out: Vz",36 L/kg
same,AUC(0-inf),[2]; [4],3950 ng·h/mL
same,Cmax,[2]; [4],2660 ± 382 ng/mL
same,Tmax,"[2]; male, CD-1, mouse, plasma, PO - 25 mg/kg, mice, read-out: Plasma Tmax",30 min
same,half-life,[2]; [4],215 min
same,lowering of Aβ40 concentration in the conditioned media,Aβ40,61.4%
same,cell morphology by phase contrast microscopy,M17 neuroblastoma cells,restored normal cell morphology
same,rescue of cell death induced by H2O2,"M17 neuroblastoma cells; 300 μM H2O2, increasing concentrations, MTT",rescue M17 neuroblastoma cell death
same,rescue of cell death induced by MPP+,"M17 neuroblastoma cells; 0.5 mM MPP+, increasing concentrations, MTT",rescue M17 neuroblastoma cell death
same,"reduction in the Aβ load (unbiased quantification, Thioflavin-S)","Aβ plaques; 50 mg/kg daily ip, age six to 10 months",25.8%
same,reduction of load of Th-S positive plaques in the brain cortex,"Aβ plaques; 50 mg/kg/day ip, age six to ten months",21.9%
same,reduction of FA extracted Aβ40 brain level,Aβ plaques; [5],82%
same,reduction of FA extracted Aβ42 brain level,Aβ plaques; [5],56%
same,reduction of level of Aβ oligomers in brain homogenate,Aβ plaques; [5],20.5%
"Oc1ccccc1N=Cc1ccccn1 [ARN4261, 2-(Pyridin-2-ylmethyleneamino)-phenol]",toxicity,[1]; 0.1-100 μM,no toxicity
